Data from US20120142718A1 (priority 2007, published 2012).
pIC50: −log10 of the molar value. Read-outs that look alike come from different tables or passages of the source.

Key:
[1] = format: physicochemical
μ-opioid receptor = biological target: T1, μ-opioid receptor (Homo sapiens, UniProt P35372); assay: biochemical; format: binding
T1 construct: expressed in transfected cells; host or cells: HEK-293 cells

[2] = male, Sprague-Dawley, rat, in vivo, 20 mg/kg

T1 sequence (P35372 whole entry): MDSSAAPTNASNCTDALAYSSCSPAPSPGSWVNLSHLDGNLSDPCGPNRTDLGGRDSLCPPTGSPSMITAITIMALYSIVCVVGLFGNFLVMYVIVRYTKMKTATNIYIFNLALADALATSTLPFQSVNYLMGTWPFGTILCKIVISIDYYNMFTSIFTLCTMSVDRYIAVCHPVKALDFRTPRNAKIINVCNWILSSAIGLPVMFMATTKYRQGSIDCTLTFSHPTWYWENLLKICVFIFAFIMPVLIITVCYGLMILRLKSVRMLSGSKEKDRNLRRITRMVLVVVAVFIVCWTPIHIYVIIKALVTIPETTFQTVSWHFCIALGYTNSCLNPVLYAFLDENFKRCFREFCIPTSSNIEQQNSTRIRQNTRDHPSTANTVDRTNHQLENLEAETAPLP

CN(CCN)C(=O)Oc1ccc(C[N+]2(C)CC[C@]34c5c6ccc(O)c5OC3C(=O)CCC4[C@H]2C6)cc1.Cl.[Cl-] (stereo partly shown) [Compound A]
% production of hydromorphone 20 hrs ([1]; pH 7.5): 70% | % production of hydromorphone 20 hrs ([1]; pH 10): 100%

CN(CCNC(=O)[C@@H](N)CCCNC(=N)N)C(=O)Oc1ccc(C[N@@+]2(C)CC[C@]34c5c6ccc(O)c5O[C@H]3C(=O)CC[C@H]4[C@H]2C6)cc1 [Example 1]
pIC50 (μ-opioid receptor): 6.60

COc1ccc2c3c1O[C@H]1C(=O)CC[C@H]4[C@@H](C2)N(C)CC[C@]314 [Hydrocodone]
Cmax HC (ng/ml) following PO dosing [2]: 23.6 ng/mL
